Measured values from the supplement of paper PMC11208160.

Assay: recombinant UMI read abundance after kanamycin selection (control-corrected) (log10(CPM+1)); higher = more efficient recombination; extreme values may be limits of the assay; sequences stand for … in AGTGCAGAGAAAATCGGCCAGTTTTCTCTGCCTGCAGTCCGCATGCCGTGGGACCCCTTGGGTTCTAACCTGTTGCCTAGATTTATGCAGCGGACTGCCTTTCTCCCAAAGTGATAAACCGG…AGGTTGGTTTCACT; site = the 11-nt donor
In short: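 Two replicates each of selected and unselected plating were used in this pooled Escherichia coli screen of donor and donor-binding-loop pairs for the IS621 bridge recombinase. Selection was with IPTG (0.07 mM) and kanamycin. Counts of recombinant UMIs, amplified across the donor–target junction, were converted to CPM, averaged, scaled by control-derived factors and reported as log10(CPM+1).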
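Note: IS621 bridge recombinase in Escherichia coli cells against a fixed T5 target plasmid.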

Sequence | recombinant UMI read abundance (log10)
GCCTACACATGGACCGGTTTTCCCGGTAATCCGTATTTGTC (site GCCTACACTGA) | 1.8
GCCTACCCATGGACCGGTTTTCCCGGTAATCCGTATTTGGC (site GCCTACCCTGC) | 0
GCCTATGCATGGACCGGTTTTCCCGGTAATCCGTATTTGTC (site GCCTATGCTGA) | 1.57
GCCTCGCCATGGACCGGTTTTCCCGGTAATCCGTATTTGCT (site GCCTCGCCTAG) | 0
GCCTCGCCATGGACCGGTTTTCCCGGTAATCCGTATTTGTA (site GCCACGCCTTA) | 0.00387
GCCTCGCCATGGACCGGTTTTCCCGGTAATCCGTATTTGTA (site GCCCCGCCTTA) | 0.633
GCCTCGCCATGGACCGGTTTTCCCGGTAATCCGTATTTGTA (site GCCGCGCCTTA) | 0.00878
GCCTCGCCATGGACCGGTTTTCCCGGTAATCCGTATTTGTA (site GCCTCGCCTTA) | 0.0151
GCCTGAACATGGACCGGTTTTCCCGGTAATCCGTATTTGCA (site GCCTGAACTTG) | 2.12
GCCTTATCATGGACCGGTTTTCCCGGTAATCCGTATTTGAA (site GCCTTATCTTT) | 0.731
GCGAAAACATGGACCGGTTTTCCCGGTAATCCGTATTTGCG (site GCGAAAACTAG) | 0
GCGAAAACATGGACCGGTTTTCCCGGTAATCCGTATTTGCG (site GCGAAAACTCG) | 2.63
GCGAAAACATGGACCGGTTTTCCCGGTAATCCGTATTTGCG (site GCGAAAACTGG) | 0
GCGAAAACATGGACCGGTTTTCCCGGTAATCCGTATTTGCG (site GCGAAAACTTG) | 0
GCGAAAACATGGACCGGTTTTCCCGGTAATCCGTATTTGGT (site GCGAAAACTAA) | 0.0141
GCGAAAACATGGACCGGTTTTCCCGGTAATCCGTATTTGGT (site GCGAAAACTAC) | 1.58
GCGAAAACATGGACCGGTTTTCCCGGTAATCCGTATTTGGT (site GCGAAAACTAG) | 0
GCGAAAACATGGACCGGTTTTCCCGGTAATCCGTATTTGGT (site GCGAAAACTAT) | 0
GCGAAAGCATGGACCGGTTTTCCCGGTAATCCGTATTTGCT (site GCGAAAACTAG) | 0

Sequence | recombinant UMI read abundance (log10)
GCGAAAGCATGGACCGGTTTTCCCGGTAATCCGTATTTGCT (site GCGAAACCTAG) | 0
GCGAAAGCATGGACCGGTTTTCCCGGTAATCCGTATTTGCT (site GCGAAAGCTAG) | 1.01
GCGAAAGCATGGACCGGTTTTCCCGGTAATCCGTATTTGCT (site GCGAAATCTAG) | 0
GCGAACACATGGACCGGTTTTCCCGGTAATCCGTATTTGCT (site GCGAAAACTAG) | 0
GCGAACACATGGACCGGTTTTCCCGGTAATCCGTATTTGCT (site GCGAACACTAG) | 1.91
GCGAACACATGGACCGGTTTTCCCGGTAATCCGTATTTGCT (site GCGAAGACTAG) | 0
GCGAACACATGGACCGGTTTTCCCGGTAATCCGTATTTGCT (site GCGAATACTAG) | 0.025
GCGAAGCCATGGACCGGTTTTCCCGGTAATCCGTATTTGTG (site GCGAAGCCTCA) | 0.643
GCGAAGCCATGGACCGGTTTTCCCGGTAATCCGTATTTGTG (site GCGAAGCCTCC) | 0.021
GCGAAGCCATGGACCGGTTTTCCCGGTAATCCGTATTTGTG (site GCGAAGCCTCG) | 0.0255
GCGAAGCCATGGACCGGTTTTCCCGGTAATCCGTATTTGTG (site GCGAAGCCTCT) | 1.98
GCGAAGCCATGGACCGGTTTTCCCGGTAATCCGTATTTGTT (site GCGAAGCCTAA) | 1.14
GCGACAACATGGACCGGTTTTCCCGGTAATCCGTATTTGCT (site GCGAAAACTAG) | 0
GCGACAACATGGACCGGTTTTCCCGGTAATCCGTATTTGCT (site GCGACAACTAG) | 1.97
GCGACAACATGGACCGGTTTTCCCGGTAATCCGTATTTGCT (site GCGAGAACTAG) | 0
GCGACAACATGGACCGGTTTTCCCGGTAATCCGTATTTGCT (site GCGATAACTAG) | 0.37
GCGACAACATGGACCGGTTTTCCCGGTAATCCGTATTTGGT (site GCGACAACTAC) | 2.46
GCGATTCCATGGACCGGTTTTCCCGGTAATCCGTATTTGTC (site GCGATTCCTGA) | 1.78
GCGCAGCCATGGACCGGTTTTCCCGGTAATCCGTATTTGGG (site GCGAAGCCTCC) | 0.0174

Sequence | recombinant UMI read abundance (log10)
GCGCAGCCATGGACCGGTTTTCCCGGTAATCCGTATTTGGG (site GCGCAGCCTCC) | 0.00363
GCGCAGCCATGGACCGGTTTTCCCGGTAATCCGTATTTGGG (site GCGGAGCCTCC) | 0.0138
GCGCAGCCATGGACCGGTTTTCCCGGTAATCCGTATTTGGG (site GCGTAGCCTCC) | 0.0296
GCGCCCTCATGGACCGGTTTTCCCGGTAATCCGTATTTGAC (site GCGCCCTCTGT) | 2.76
GCGCCGGCATGGACCGGTTTTCCCGGTAATCCGTATTTGTG (site GCGCCGGCTCA) | 0.015
GCGCTCTCATGGACCGGTTTTCCCGGTAATCCGTATTTGCT (site GCGCTCTCTAG) | 2.75
GCGGAGTCATGGACCGGTTTTCCCGGTAATCCGTATTTGTT (site GCGGAGTCTAA) | 3.15
GCGTATGCATGGACCGGTTTTCCCGGTAATCCGTATTTGTA (site GCGTATGCTTA) | 2.99
GCGTGACCATGGACCGGTTTTCCCGGTAATCCGTATTTGCA (site GCGTGACCTTG) | 0.00644
GCGTGGTCATGGACCGGTTTTCCCGGTAATCCGTATTTGGC (site GCGTGGTCTGC) | 2.06
GCGTTGACATGGACCGGTTTTCCCGGTAATCCGTATTTGAG (site GCGTTGACTCT) | 1.98
GCGTTGACATGGACCGGTTTTCCCGGTAATCCGTATTTGCA (site GCGTTGACTTG) | 2.59
GCTAATGCATGGACCGGTTTTCCCGGTAATCCGTATTTGCC (site GCTAATGCTGG) | 0
GCTAATGCATGGACCGGTTTTCCCGGTAATCCGTATTTGCC (site GCTACTGCTGG) | 0
GCTAATGCATGGACCGGTTTTCCCGGTAATCCGTATTTGCC (site GCTAGTGCTGG) | 0
GCTAATGCATGGACCGGTTTTCCCGGTAATCCGTATTTGCC (site GCTATTGCTGG) | 0
GCTACCCCATGGACCGGTTTTCCCGGTAATCCGTATTTGTG (site GCTACCCCTCA) | 0.013
GCTACCGCATGGACCGGTTTTCCCGGTAATCCGTATTTGCA (site GCTACCGCTTG) | 2.13
GCTACCTCATGGACCGGTTTTCCCGGTAATCCGTATTTGCG (site GCTACCTCTCG) | 1.22
